The Ki is the equilibrium dissociation constant of an inhibitor or competing ligand from its target. In general, IC50 refers to the concentration that inhibits the measured activity by half. The term Cmax denotes the highest concentration seen after dosing. What is called clearance is a measure of how efficiently the substance is removed, as volume per time. The bioavailability is the share of a dose that reaches the circulation, judged against a reference dose that is usually intravenous.

The record followed here is ChEMBL document CHEMBL1141395, “2-(S)-phenethylaminothiazolones as potent, orally efficacious inhibitors of 11beta-hydroxysteriod dehydrogenase type 1” (J Med Chem, 2007).

Data set [1] concerns the target T1, 11-beta-hydroxysteroid dehydrogenase 1 (Homo sapiens, UniProt P28845).
Description: Displacement of [3H]cortisone from human recombinant 11beta-HSD1 by SPA
For data set [2], the target named is T1, 11-beta-hydroxysteroid dehydrogenase 1. The source holds these as a separate data set.
Description: Inhibition of human 11beta-HSD1 over expressed in CHO cells by whole cell assay
The nature of data set [3]: Cmax in Sprague-Dawley rat at 10 mg/kg, po. Type of data set: ADME, organism-based. The arrangement: dose 10 mg/kg, route oral. The following applies: in vivo.
A short description of data set [4]: Volume of distribution in Sprague-Dawley rat at 2 mg/kg, iv. To be noted: in vivo, read-out: Vss. Type of data set: ADME, organism-based. The arrangement: dose 2 mg/kg, route intravenous.
A short description of data set [5]: Clearance in Sprague-Dawley rat at 2 mg/kg, iv. Type of data set: ADME, organism-based. The arrangement: dose 2 mg/kg, route intravenous. The following applies: in vivo.
Data set [6] is described as follows: Oral bioavailability in Sprague-Dawley rat at 10 mg/kg, po. Type of data set: ADME, organism-based. To be noted: in vivo.
Data set [7] deals with 11-beta-hydroxysteroid dehydrogenase type 2 (Homo sapiens, UniProt P80365). In words: Inhibition of human 11beta-HSD2.
Sequence of 11-beta-hydroxysteroid dehydrogenase type 2 (P80365 whole entry, looked up): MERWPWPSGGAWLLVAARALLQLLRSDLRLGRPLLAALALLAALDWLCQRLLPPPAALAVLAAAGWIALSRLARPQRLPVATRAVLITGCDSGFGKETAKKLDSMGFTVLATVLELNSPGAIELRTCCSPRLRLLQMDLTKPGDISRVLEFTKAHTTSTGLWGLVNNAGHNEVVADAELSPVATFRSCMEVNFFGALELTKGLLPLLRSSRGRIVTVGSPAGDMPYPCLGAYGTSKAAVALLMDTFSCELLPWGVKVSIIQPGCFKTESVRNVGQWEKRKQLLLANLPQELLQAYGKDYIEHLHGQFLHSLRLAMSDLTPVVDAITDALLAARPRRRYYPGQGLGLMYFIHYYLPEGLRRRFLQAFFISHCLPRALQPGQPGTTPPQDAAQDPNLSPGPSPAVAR
The target in another data set is T2, Glucocorticoid receptor (Homo sapiens, UniProt P04150).
T2 sequence (P04150 whole entry): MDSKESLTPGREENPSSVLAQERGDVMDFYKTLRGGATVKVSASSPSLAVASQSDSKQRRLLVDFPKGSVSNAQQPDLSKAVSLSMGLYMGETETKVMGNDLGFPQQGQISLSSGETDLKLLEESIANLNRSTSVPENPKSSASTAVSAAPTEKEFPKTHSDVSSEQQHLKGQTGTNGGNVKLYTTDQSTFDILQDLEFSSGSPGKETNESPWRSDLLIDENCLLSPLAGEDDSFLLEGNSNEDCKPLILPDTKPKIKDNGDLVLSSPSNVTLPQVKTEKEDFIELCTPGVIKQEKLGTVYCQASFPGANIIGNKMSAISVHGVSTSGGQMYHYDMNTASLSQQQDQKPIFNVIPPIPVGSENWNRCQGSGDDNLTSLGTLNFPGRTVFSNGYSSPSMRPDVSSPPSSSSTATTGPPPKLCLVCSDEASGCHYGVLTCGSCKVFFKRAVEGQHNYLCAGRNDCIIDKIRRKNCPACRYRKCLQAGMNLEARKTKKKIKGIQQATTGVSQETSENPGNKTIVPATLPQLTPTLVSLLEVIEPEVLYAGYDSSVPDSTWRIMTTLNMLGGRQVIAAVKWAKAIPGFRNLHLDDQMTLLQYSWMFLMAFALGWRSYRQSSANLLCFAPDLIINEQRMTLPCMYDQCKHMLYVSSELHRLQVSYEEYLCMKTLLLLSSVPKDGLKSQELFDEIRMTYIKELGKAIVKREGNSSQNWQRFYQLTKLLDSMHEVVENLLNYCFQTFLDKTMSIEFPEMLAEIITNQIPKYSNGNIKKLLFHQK
Nature of the data set: Inhibition of glucocorticoid receptor.

Data set [8] concerns the target 11-beta-hydroxysteroid dehydrogenase 1 (Mus musculus, UniProt P50172). In words: Inhibition of murine 11beta-HSD1.
The target of data set [9] is 11-beta-hydroxysteroid dehydrogenase 1 (Mus musculus) (UniProt P50172). In words: Reduction of 11beta-HSD1 activity in C57/B16 mouse at 30 mg/kg, po after 2 hrs. Type of data set: organism-based. The arrangement: dose 30 mg/kg; scale not given: the % may be the effect or the level left.
Sequence of 11-beta-hydroxysteroid dehydrogenase 1 (Mus musculus) (P50172 whole entry, looked up): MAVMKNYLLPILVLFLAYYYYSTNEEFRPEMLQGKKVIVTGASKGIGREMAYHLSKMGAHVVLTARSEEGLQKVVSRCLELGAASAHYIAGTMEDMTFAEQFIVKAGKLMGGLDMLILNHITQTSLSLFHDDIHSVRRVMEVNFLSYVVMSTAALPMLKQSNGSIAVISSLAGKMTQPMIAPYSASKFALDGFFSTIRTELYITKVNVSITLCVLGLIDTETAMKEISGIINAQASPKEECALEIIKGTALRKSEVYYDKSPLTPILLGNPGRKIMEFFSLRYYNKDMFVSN
Data set [10] has the same target. Nature of the data set: Reduction of 11beta-HSD1 activity in C57/B16 mouse at 30 mg/kg, po after 6 hrs. The data set is classed as organism-based. The arrangement: dose 30 mg/kg; scale not given: the % may be the effect or the level left.
Data set [11] is described as follows: Drug level in adipose in C57/B16 mouse at 30 mg/kg, po after 2 hrs. On the set-up: dose 30 mg/kg, route oral. Type of data set: ADME, organism-based. The following applies: read-out: Drug uptake.
A short description of data set [12]: Drug level in adipose in C57/B16 mouse at 30 mg/kg, po after 6 hrs. The data set is classed as ADME, organism-based. On the set-up: dose 30 mg/kg, route oral. The following applies: read-out: Drug uptake.
The nature of data set [13]: Drug level in C57/B16 mouse plasma at 30 mg/kg, po after 2 hrs. The arrangement: dose 30 mg/kg, route oral. Type of data set: ADME, organism-based.
Data set [14] is described as follows: Drug level in C57/B16 mouse plasma at 30 mg/kg, po after 6 hrs. The data set is classed as ADME, organism-based. On the set-up: dose 30 mg/kg, route oral.

T1 sequence (P28845 whole entry): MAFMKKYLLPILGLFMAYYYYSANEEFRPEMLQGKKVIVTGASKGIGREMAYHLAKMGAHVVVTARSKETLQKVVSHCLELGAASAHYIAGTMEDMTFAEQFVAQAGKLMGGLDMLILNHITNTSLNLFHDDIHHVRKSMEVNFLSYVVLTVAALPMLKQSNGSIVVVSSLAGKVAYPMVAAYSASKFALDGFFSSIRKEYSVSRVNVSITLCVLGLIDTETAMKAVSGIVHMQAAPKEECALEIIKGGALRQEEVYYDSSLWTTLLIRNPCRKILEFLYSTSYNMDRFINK
Sequence of 11-beta-hydroxysteroid dehydrogenase 1 (Mus musculus, UniProt P50172) (P50172 whole entry): as the sequence (P50172 whole entry, looked up) above

Consider `CC(C)C1(C)SC(NCc2ccccc2)=NC1=O` (configuration not stated), for which the Ki in data set [1] is 65 nM. In data set [2], this compound yielded an IC50 of 53 nM.

Compound `CC(C)[C@]1(C)SC(N[C@@H](C)c2ccccc2F)=NC1=O` gave a Cmax in data set [3] of 176 ng/mL. In addition, the Vd in [4] came to 5.73 L/kg. For the same compound, in data set [5], the clearance was 42.8 mL/min/kg. In addition, the bioavailability in [6] turned out to be 20%.

The compound `C[C@H](NC1=NC(=O)C(C)(C(C)(C)F)S1)c1ccccc1F` (some centres not stated) displayed a peak concentration (Cmax) in data set [3] of 1080 ng/mL. Moreover, the Vd in data set [4] is 1.66 L/kg. In data set [5], this compound gave a clearance of 14.8 mL/min/kg. Besides, the bioavailability in [6] was 47%.

With `C[C@H](NC1=NC(=O)[C@@](C)(C(F)(F)F)S1)c1ccccc1F`, the Cmax in [3] amounted to 4630 ng/mL. Moreover, in data set [4], the Vd turned out to be 1.2 L/kg. The clearance in data set [5] is 3.13 mL/min/kg. Moreover, the bioavailability in data set [6] was 75%. In addition, the IC50 is above 10000 nM in [7], above 50000 nM against Glucocorticoid receptor and 33 nM in data set [2]. The inhibitory constant (Ki) in [8] is 130 nM; in data set [1], 22 nM. For the same compound, the results for the Activity in [9] and in [10] were 88% and 91%, respectively. Moreover, the concentration at 2 h in [11] is 234 µM; in data set [13] it was 55 µM. The concentration at 6 h in data set [12] stood at 113 µM; in data set [14], 35 µM.

With `C[C@H](NC1=NC(=O)[C@](C)(C(F)(F)F)S1)c1ccccc1F`, the highest concentration (Cmax) in data set [3] amounted to 1230 ng/mL. The Vd in data set [4] is 1.66 L/kg. Moreover, the clearance in [5] was 9.6 mL/min/kg. In addition, the bioavailability in data set [6] stood at 50%. Further, the Ki in data set [1] came out at 48 nM. In [2], this compound came in with an IC50 of 96 nM.

`C[C@H](NC1=NC(=O)C(C)(C(F)(F)F)S1)c1ccccc1F` (some centres not stated) gave a peak concentration (Cmax) in [3] of 1040 ng/mL. Besides, the Vd in [4] turned out to be 2.98 L/kg. Moreover, the clearance in data set [5] was 8.35 mL/min/kg. This compound displayed a bioavailability in data set [6] of 55%. In data set [1], this compound displayed an inhibition constant (Ki) of 20 nM. Also, the IC50 in data set [2] was found to be 56 nM.
